Structures can show the parent of a compound that is named as a salt.
assay: in vitro; conditions: rat, gh3-tre-luc cells, AC50 (uM) modified / 1000

`CC(C)NCC(O)c1ccc(O)c(O)c1` (stereo not drawn) [Isoproterenol hydrochloride] and `C=CCc1ccccc1OCC(O)CNC(C)C` (stereo not drawn) [Alprenolol] cannot be ordered by CC50 at 24 h: > 90 µM for the first, > 50 µM for the second.

`C1CCCNCCC1` [Heptamethyleneimine] and `CCC(C)(C)C1CCCCC1OC(C)=O` (stereo not drawn) [2-(2-Methylbutan-2-yl)cyclohexyl acetate] cannot be ordered by CC50 at 24 h: > 90 µM for the first, > 90 µM for the second.

`CSCC[C@H](NC(=O)[C@H](Cc1c[nH]c2ccccc12)NC(=O)CCNC(=O)OC(C)(C)C)C(=O)N[C@@H](CC(=O)O)C(=O)N[C@@H](Cc1ccccc1)C(N)=O` [Pentagastrin] and `CC(C)C(OC(=O)c1ccccc1)C(C)(C)COC(=O)c1ccccc1` (stereo not drawn) [2,2,4-Trimethylpentane-1,3-diyl dibenzoate] cannot be ordered by CC50 at 24 h: > 50 µM for the first, 76 µM for the second.

`CCOC(=O)O[C@]1(C(=O)OCCl)CC[C@H]2[C@@H]3CCC4=CC(=O)C=C[C@]4(C)[C@H]3[C@@H](O)C[C@@]21C` [Loteprednol etabonate] and `C[C@@H]1C[C@H]2[C@@H]3CCC4=CC(=O)C=C[C@]4(C)[C@@]3(F)[C@@H](O)C[C@]2(C)[C@@]1(O)C(=O)COC(=O)c1cccc(S(=O)(=O)O)c1` [Dexamethazone metasulfobenzoate sodium] cannot be ordered by CC50 at 24 h: > 50 µM for the first, > 50 µM for the second.

`O=C(O)/C=C/c1ccccc1` [E-Cinnamic acid] and `C=CC(C)(CCC=C(C)C)OC(=O)/C=C/c1ccccc1` (stereo not drawn) [Linalyl cinnamate] cannot be ordered by CC50 at 24 h: > 90 µM for the first, > 90 µM for the second.

`Cc1c(N)cccc1N` [2,6-Toluenediamine] and `Cc1ccccc1S` [2-Methylbenzenethiol] cannot be ordered by CC50 at 24 h: > 90 µM for the first, > 70 µM for the second.

Going from `CCc1cccc(O)c1` [3-Ethylphenol] to `O=C(O)CCCc1ccc(N(CCCl)CCCl)cc1` [Chlorambucil], the CC50 at 24 h falls from > 90 µM to 61 µM.

`NCC(=O)O` [Glycine] and `COC(N)=O` [Methyl carbamate] cannot be ordered by CC50 at 24 h: > 50 µM for the first, > 90 µM for the second.

`CN[C@@H]1CCc2[nH]c3ccc(C(N)=O)cc3c2C1` [Frovatriptan Succinate monohydrate] and `Nc1ccc(NC(=O)c2ccc(N)cc2)cc1` [4,4'-Diaminobenzanilide] cannot be ordered by CC50 at 24 h: > 50 µM for the first, > 90 µM for the second.

`c1c[nH]cn1` [Imidazole] and `Cc1occc1SSc1ccoc1C` [Bis(2-methyl-3-furyl)disulfide] cannot be ordered by CC50 at 24 h: > 100 µM for the first, > 90 µM for the second.

`N=C(N)NC(=O)c1nc(Cl)c(N)nc1N` [Amiloride hydrochloride] and `CC(C)(C)C(=O)OCOC(=O)[C@@H]1N2C(=O)[C@@H](NC(=O)[C@H](N)c3ccccc3)[C@H]2SC1(C)C` [Pivampicillin] cannot be ordered by CC50 at 24 h: > 90 µM for the first, > 20 µM for the second.

Compared with `CC1(C)CC(OC(=O)CCCCCCCCC(=O)OC2CC(C)(C)NC(C)(C)C2)CC(C)(C)N1` [Bis(2,2,6,6-tetramethyl-4-piperidyl) sebacate], `CCCCCCCCCC/C=C/C1CC(=O)OC1=O` (stereo not drawn) [3-(Dodecenyl)dihydro-2,5-furandione] is higher in CC50 at 24 h: 1.55 µM for the first, > 90 µM for the second.

`SCCOCCOCCS` [2,2'-[Ethane-1,2-diylbis(oxy)]diethanethiol] and `C=COCC(C)C` [Vinyl isobutyl ether] cannot be ordered by CC50 at 24 h: > 90 µM for the first, > 100 µM for the second.

Going from `CN1CCN(CCCN2c3ccccc3Sc3ccc(Cl)cc32)CC1` [Prochlorperazine dimaleate] to `O=C(O)c1cc(O)c2c(c1)[C@H]([C@H]1c3cc(C(=O)O)cc(O)c3C(=O)c3c(O[C@@H]4O[C@H](CO)[C@@H](O)[C@H](O)[C@H]4O)cccc31)c1cccc(O[C@@H]3O[C@H](CO)[C@@H](O)[C@H](O)[C@H]3O)c1C2=O` [Sennoside A], the CC50 at 24 h rises from 5.73 µM to > 50 µM.

For `CC(C)(CO)C(O)C(=O)NCCCO` (stereo not drawn) [Panthenol], the CC50 at 24 h was > 90 µM.

same assay, conditions: rat, gh3-tre-luc cells, AC50 (uM) modified / 1000, Tox21_110001=Tox21_111889; viability, 1 nM T3 present, 24 h

With `Cc1c(Cl)c(=O)oc2cc(OP(=O)(OCCCl)OCCCl)ccc12` [Haloxon] the CC50 at 24 h was > 50 µM.

same assay, conditions: rat, gh3-tre-luc cells, AC50 (uM) modified / 1000, Tox21_110001=Tox21_200721; viability, 1 nM T3 present, 24 h

For `c1ccc2cc3c(cc2c1)-c1cccc2cccc-3c12` [Benzo(k)fluoranthene], the CC50 at 24 h was > 90 µM.

same assay, conditions: rat, gh3-tre-luc cells, AC50 (uM) modified / 1000, Tox21_110001=Tox21_202858; viability, 1 nM T3 present, 24 h

In the case of `COc1ccc(C=O)cc1O` [3-Hydroxy-4-methoxy-benzaldehyde], the CC50 at 24 h is reported as > 90 µM.

same assay, conditions: rat, gh3-tre-luc cells, AC50 (uM) modified / 1000, Tox21_110001=Tox21_301105; viability, 1 nM T3 present, 24 h

In the case of `Nc1nc(N)nc(Cl)n1` [2-Chloro-4,6-diamino-1,3,5-triazine], the CC50 at 24 h is reported as > 90 µM.
